# Structures can show the parent of a compound that is named as a salt.
# Legend:
# [1] = tested on: diaphorase; assay: Formation of formazan dyes: NADH and diaphorase, absence of malate (TABLE 7); format: biochemical, Clostridium kluyveri; conditions: NADH and diaphorase, absence of malate
# [2] = tested on: diaphorase; assay: Formation of formazan dyes: NADH, diaphorase and malate (TABLE 8); format: biochemical, Clostridium kluyveri; conditions: NADH, diaphorase and malate
# [3] = Formation of formazan dyes: NADH and 1-methoxy PMS, absence of malate (TABLE 15); format: biochemical; conditions: NADH and 1-methoxy PMS, absence of malate, mean of three experiments
# [4] = biological target: T1, Malate dehydrogenase (Sus scrofa, UniProt P00346); assay: Formation of formazan dyes: Malate dehydrogenase and 1-Methoxy PMS, absence of malate (TABLE 17); format: biochemical, pig heart; parameters: L-malate dehydrogenase (pig heart); purchased Sigma-Aldrich 10127248001 / 10127914001; conditions: Malate dehydrogenase and 1-Methoxy PMS, absence of malate, mean of three experiments
# T1 sequence (P00346 25-338): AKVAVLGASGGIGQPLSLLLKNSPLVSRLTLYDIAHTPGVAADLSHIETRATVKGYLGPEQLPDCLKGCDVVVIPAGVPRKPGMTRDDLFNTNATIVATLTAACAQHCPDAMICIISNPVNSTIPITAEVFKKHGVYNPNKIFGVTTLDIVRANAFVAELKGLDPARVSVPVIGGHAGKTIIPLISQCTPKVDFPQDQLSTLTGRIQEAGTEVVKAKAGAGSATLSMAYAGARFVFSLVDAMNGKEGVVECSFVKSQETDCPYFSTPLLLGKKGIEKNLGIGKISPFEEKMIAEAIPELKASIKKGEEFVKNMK
# [5] = tested on: oral lavage; assay: Formation of formazan dyes: oral lavage and diaphorase, not malate (TABLE 11); format: biochemical, human
smiles,measurement,setting,value
"Cc1nc(-[n+]2nc(-c3cccc(OCC(=O)O)c3)nn2-c2ccc(S(=O)(=O)[O-])cc2)sc1C [MTS, 3-(4,5-dimethylthiazol-2-yl)-5-(3-carboxymethoxyphenyl)-2-(4-sulfophenyl)-2H-tetrazolium, inner salt]","Formation of formazan dyes, absorbance, Means 0 h",[1]; 0 h,3.21
same,"Formation of formazan dyes, absorbance, Means 1 h",[1]; 1 h,3.24
same,"Formation of formazan dyes, absorbance, Means 2 h",[1]; 2 h,3.22
same,"Formation of formazan dyes, absorbance, Means 3 h",[1]; 3 h,3.20
same,"Formation of formazan dyes, absorbance, Means 4 h",[1]; 4 h,3.27
same,"Formation of formazan dyes, absorbance, Means 6 h",[1]; 6 h,3.29
same,"Formation of formazan dyes, absorbance, Means 8 h",[1]; 8 h,3.28
same,"Formation of formazan dyes, absorbance, Means 10 h",[1]; 10 h,3.28
same,"Formation of formazan dyes, absorbance, Means 12 h",[1]; 12 h,3.28
same,"Formation of formazan dyes, absorbance, Means 0 h",[2]; 0 h,3.01
same,"Formation of formazan dyes, absorbance, Means 1 h",[2]; 1 h,3.01
same,"Formation of formazan dyes, absorbance, Means 2 h",[2]; 2 h,3.00
same,"Formation of formazan dyes, absorbance, Means 3 h",[2]; 3 h,3.00
same,"Formation of formazan dyes, absorbance, Means 4 h",[2]; 4 h,3.07
same,"Formation of formazan dyes, absorbance, Means 6 h",[2]; 6 h,3.09
same,"Formation of formazan dyes, absorbance, Means 8 h",[2]; 8 h,3.17
same,"Formation of formazan dyes, absorbance, Means 10 h",[2]; 10 h,3.08
same,"Formation of formazan dyes, absorbance, Means 12 h",[2]; 12 h,3.20
same,"Absorbance, formation of formazan dyes (Means)",[3]; 0 h,2.31
same,"Absorbance, formation of formazan dyes (Means)",[3]; 1 h,2.55
same,"Absorbance, formation of formazan dyes (Means)",[3]; 2 h,2.60
same,"Absorbance, formation of formazan dyes (Means)",[3]; 3 h,2.59
same,"Absorbance, formation of formazan dyes (Means)",[3]; 4 h,2.63
same,"Absorbance, formation of formazan dyes (Means)",[3]; 6 h,2.65
same,"Absorbance, formation of formazan dyes (Means)",[3]; 8 h,2.69
same,"Absorbance, formation of formazan dyes (Means)",[3]; 10 h,2.67
same,"Absorbance, formation of formazan dyes (Means)",[3]; 12 h,2.65
same,"Absorbance, formation of formazan dyes (Means)",[4]; 0 h,0.34
same,"Absorbance, formation of formazan dyes (Means)",[4]; 1 h,0.36
same,"Absorbance, formation of formazan dyes (Means)",[4]; 2 h,0.33
same,"Absorbance, formation of formazan dyes (Means)",[4]; 3 h,0.33
same,"Absorbance, formation of formazan dyes (Means)",[4]; 4 h,0.41
same,"Absorbance, formation of formazan dyes (Means)",[4]; 6 h,0.48
same,"Absorbance, formation of formazan dyes (Means)",[4]; 8 h,0.48
same,"Absorbance, formation of formazan dyes (Means)",[4]; 10 h,0.52
same,"Absorbance, formation of formazan dyes (Means)",[4]; 12 h,0.51
same,"Formation of formazan dyes, absorbance, Means 0 h","[5]; oral lavage and diaphorase, not malate, 0 h",0.70
same,"Formation of formazan dyes, absorbance, Means 1 h","[5]; oral lavage and diaphorase, not malate, 1 h",0.86
same,"Formation of formazan dyes, absorbance, Means 2 h","[5]; oral lavage and diaphorase, not malate, 2 h",0.91
same,"Formation of formazan dyes, absorbance, Means 3 h","[5]; oral lavage and diaphorase, not malate, 3 h",1.00
same,"Formation of formazan dyes, absorbance, Means 4 h","[5]; oral lavage and diaphorase, not malate, 4 h",1.13
same,"Formation of formazan dyes, absorbance, Means 6 h","[5]; oral lavage and diaphorase, not malate, 6 h",1.18
same,"Formation of formazan dyes, absorbance, Means 8 h","[5]; oral lavage and diaphorase, not malate, 8 h",1.21
same,"Formation of formazan dyes, absorbance, Means 10 h","[5]; oral lavage and diaphorase, not malate, 10 h",1.25
same,"Formation of formazan dyes, absorbance, Means 12 h","[5]; oral lavage and diaphorase, not malate, 12 h",1.27
same,reduction to formazan dyes by pooled oral lavage,"[5]; pooled oral lavage of high bleeder group, diaphorase, no added malate (TABLE 11)",changed to formazan dyes in a significant amount
